In US20100240595A1, “Improved Antitumoral Treatments” (PHARMA MAR ,S.A., priority 2007, published 2010):
Starred links: 1 amine or outer side, 2 acyl side, 3 side chain; linkers in the order of their positions; H or OH if unused. Positions of bridges follow the written chain, without caps; N, C: chain ends. Non-standard residues stand in square brackets, D forms with d. Residues, ends and D or L forms follow the SMILES beside them. *: point of attachment. X1 = CC[C@H](C)[C@@H](N[*:1])[C@@H](O)CC(=O)O[C@H](C(=O)[C@H](C)C(=O)[*:2])C(C)C; NMeY = CN[C@@H](Cc1ccc(O)cc1)C(=O)O; dNMeL = CN[C@H](CC(C)C)C(=O)O; Pyruvoyl = CC(=O)C(=O)*

Experiments:
PANC-1 cell line = assay: In vitro cytotoxicity, MTS/PMS assay, single agents; format: cell-based; details: Homo sapiens; PANC-1, 96 hours exposure, MTS/PMS viability
Method: (§1) PANC-1 (ATCC CRL-1469) and MIA PaCa-2 (ATCC CRL-1420) cell lines obtained from ATCC (Rockville, Md.) were used to check the cytotoxicity of Aplidine and Gemcitabine hydrochloride salt in human pancreas carcinoma cell lines. These cell lines were maintained in Dulbecco's modified Eagle medium with 4 mmol/L glutamine containing 10% Fetal Bovine Serum (FBS), and 1% Penicillin/Streptomycin solution, at 37° C. in humidified atmosphere of 5% CO2.
(§2) Four thousand cells/well were plated in a 96/wells tissue culture plate and exposed to different concentrations of Aplidine or Gemcitabine for 96 hours at 37° C. and 5% CO2. At the end of the incubation the viability of the cells was tested with the MTS/PMS assay (Riss T L and Moravec R A, Mol. Biol. Cell, 1992, 3, 184a). Cell viability was correlated to the amount of formazan quantified spectrophotometrically at 450 nm (reference wavelength 670 nm) using a microplate reader (SpectraMax® Plus^384, Molecular Devices, Sunnyvale, Calif.).

MIA PaCa-2 cell line = assay: as above; format: cell-based; details: Homo sapiens; MIA PaCa-2, 96 hours exposure, MTS/PMS viability
Method: as §1, §2

[1] = system: AML and ALL samples from pediatric patients; details: 5 nM; de novo or relapsed ALL and AML; cited from earlier work
PANC-1 cells = assay: Pancreatic cancer xenograft model, tumor volume; format: in vivo, NCR Nu/Nu mice; details: median tumor volume
Text: Pathogen-free NCR Nu/Nu mice, of 5 to 6 weeks old and purchased from Taconic Farms (Germantown, N.Y.), were housed in microisolator cages under specific pathogen-free conditions. The animals were provided autoclaved food and water ad libitum.
Mice were inoculated subcutaneously in the right flank with 0.5×10^7 PANC-1 cells containing 10% matrigel.
As mentioned before, the vehicle used for the administration of Aplidine contained 15% Cremophor EL/15% Ethanol/70% WFI diluted in saline, whereas Gemcitabine was prepared in saline in order to be administered.
Both drugs were administered intra-peritoneally. […] Tumor size and weight of the animals were recorded every other day, starting from the first day of treatment. Tumor volume was calculated according to the formula:
tumor volume (mm^3)=(longer diameter)×[(shorter diameter)^2]/2.
Comparison of the median tumor volume in the treatment groups (T) to the median tumor volume in the control group (C) [T/C] on day 20 was used for evaluation of tumor efficacy. % T/C [T/C×100%] for each treatment is reported in Table 3.

CC[C@H](C)[C@H]1NC(=O)[C@@H](NC(=O)[C@@H](CC(C)C)N(C)C(=O)[C@@H]2CCCN2C(=O)C(C)=O)[C@@H](C)OC(=O)[C@H](Cc2ccc(OC)cc2)N(C)C(=O)[C@@H]2CCCN2C(=O)[C@H](CC(C)C)NC(=O)[C@@H](C)C(=O)[C@H](C(C)C)OC(=O)C[C@@H]1O [Aplidine] (Pyruvoyl-P[dNMeL]T[X1]LP[NMeY](Me); ester 3-C)
IC50 (PANC-1 cell line): 1 nM | IC50 (MIA PaCa-2 cell line): 1 nM | In vitro cytotoxic activity [1]: cytotoxic activity | % T/C on day 20 (PANC-1 cells; Aplidine 0.6 mg/kg on day 1 and 8, intra-peritoneally): 23%

Nc1ccn([C@@H]2O[C@H](CO)[C@@H](O)C2(F)F)c(=O)n1 [Gemcitabine, reference compound]
IC50 (PANC-1 cell line): 1000 nM | IC50 (MIA PaCa-2 cell line): 150 nM | % T/C on day 20 (PANC-1 cells; Gemcitabine 250 mg/kg on day 1, 4, 8 & 12, intra-peritoneally): 45%
